One data set concerns rat brain homogenate. Kind of data set: Inhibition of iron-induced lipid peroxidation (MDA quantification). Type of data set: biochemical. The conditions noted are these: 100 uM; FeCl2 400 uM, 37 °C, 30 min. Here is the method: The rat brain was homogenized in a Krebs buffer (15 mM HEPES, 10 mM glucose, 140 mM NaCl, 3.6 mM KCl, 1.5 mM CaCl2, 1.4 mM KH2PO4, 0.7 mM MgCl2, pH 7.4) and the supernatant separated by centrifugation at 12,000 rpm for 10 min. was used for further experiments. FeCl2 was added to a final concentration of 400 uM in the brain homogenate which was then allowed to stand at 37 °C for 30 min. for the facilitation of oxidation. Each of the test compounds was added at a concentration of 100 uM and vehicle was used as a control.
Iron facilitates the oxidation of the brain homogenate to produce malondialdehyde (MDA), a lipid peroxidation product. Thus, the lipid peroxidation was determined by MDA quantification. The inhibitory effect of the test compounds against the lipid peroxidation was evaluated by calculating MDA reduction rate of the test compounds compared with that of the control group.
Typically, the MDA quantification is achieved by reacting samples with 2-thiobarbituric acid (TBA) and measuring the absorbance at 530 nm. However, this method is unsuitable to treat samples on a large scale because of a boiling step. Thus, in this experiment, N-methyl-2-phenylindole was used instead of TBA. […] Bioxytech^R LPO-586 Kit was used for MDA quantification.

In data set [1] the test system is Rat aortic smooth muscle cells. Kind of data set: Inhibition of proliferation of vascular smooth muscle cells ([3H]-thymidine incorporation into DNA). Type of data set: cell-based. The conditions noted are these: [^3H]-thymidine into DNA; angiotensin II (10^-7M) stimulated = 100; 72 hr; 4320 min. The method, then:
Inhibitory effects on cell proliferation was evaluated by measurement of incorporation of [^3H]-thymidine into DNA. Rat aortic smooth muscle cells were grown in 24 well plate for 3 days to near confluence in DMEM containing 10% FBS, then DMEM containing FBS was washed out. Cells were cultured again in DMEM without serum for 48 hr to be quiescent. […] During the last 4 hours of incubation, [^3H]-thymidine (1 uCi/ml) was added. […] The samples were filtered through glass microfiber filter (GF/B. Whatmann) under vacuum. After washing the filters 3 times with 2 ml of an aqueous solution of 5% TCA, the radioactivity incorporated into DNA was counted by Liquid Scintillation Counter (Packard, TRI-CARB, 2100TR), then calculated incorporation % of [^3H]-thymidine.
A general note: Uptake of a labelled nucleoside into DNA is a usual measure of proliferation.

Data set [2] in a line: Acute oral toxicity test in rats. As to conditions: rat, in vivo, single oral dose in 0.5% methyl cellulose, read-out: lethal dose (LD50) for oral administration. The essentials:
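Six-week-old SPF SD rats, two per group, received a single oral dose of 1 g/kg suspended in 0.5% methyl cellulose (10 ml/kg). Survivors at the end of observation underwent haematology, serum chemistry, necropsy and histopathology of vital organs with macroscopic lesions.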

The next data set deals with RAW 264.7 cells. Kind of data set: Inhibition of LPS-induced NO production (Griess reagent). Type of data set: cell-based, murine. The conditions noted are these: Mus musculus, RAW264.7, 100 uM, 24 hours. The method, then: Using RPMI1640 media supplemented with 10% fetal bovine serum (FBS), RAW 264.7 cells (obtained from American Type Culture Collection), a murine macrophage cell line, were cultured at 37 °C in a 5% CO2 incubator. The RAW264.7 cells were harvested and cell density was adjusted to 5x10^5/ml with a RPMI medium supplemented with 0.5% FBS and plated at 5x10^4 cells/well to 96-well plates, which were then cultured for 20 hr in a CO2 incubator. After removal of the media, the cells were pre-treated for 1 hour with fresh media containing 33 uM and 100 uM of test compounds. The test compounds were dissolved in DMSO and diluted to respective concentration in the media. In order to minimize DMSO effect on the nitric oxide formation by the RAW264.7 cells in the wells, the media were allowed to contain DMSO at a concentration of 0.1 % or less.
After completion of one hour pre-treatment, lipopolysaccharide (LPS, E. coli serotype 055:B5) was added to activate the cells, which were, then, maintained for 24 hours in a CO2 incubator. As a result of the activation of RAW264.7 cells with LPS, NO was formed. The NO released into the media was in a form of nitrite NO2^- and quantitatively measured using the Griess reagent. A control was treated only with vehicle instead of test compounds.
The inhibitory effects of the test compounds against NO production were determined as the reduction of NO quantity compared with that of the control group.
In general terms: Griess reagent forms a coloured azo dye with nitrite.

For orientation: % Inhibition means the share of the control response that was lost under treatment. High values mean strong suppression, low ones little suppression. The inhibition is the relative decrease from the control value, in per cent. Turning to `COC(OC)[C@]1(C)Oc2ccc([N+](=O)[O-])cc2[C@@H](NC(=NC#N)Nc2cccc(C(F)(F)F)c2)[C@@H]1O` [Example 7, (2R, 3S, 4R)-N''-cyano-N-(6-nitro-3,4-dihydro-3-hydroxy-2-methyl-2-dimethoxymethyl-2H-benzopyran-4-yl)-N'-(3-trifluoromethylphenyl)guanidine], the “% Inhibition” value with rat brain homogenate came to 70%. The compound also returned an Incorporation % in data set [1] of 37.8%. Further, the LD50 in data set [2] is > 1000 mg/kg. In the data set on RAW 264.7 cells, testing at 100 µM gave an inhibition of 88%.

(Values after EP1228058B1, “BENZOPYRANYL GUANIDINE DERIVATIVES, PROCESS FOR PREPARATION THEREOF, AND PHARMACEUTICAL COMPOSITIONS CONTAINING THEM” (Dongbu Hannong Chemical Co., Ltd., priority 1999, dated 2001).)
